In US7179806B2, “Δ1-pyrrolines used as pesticides” (Bayer Cropscience AG, priority 2000, dated 2007):

Experiments:
[1] = tested on: Heliothis virescens caterpillars; assay: Heliothis virescens test (soya bean shoots dipped); assay type: in vivo
Experimental: (§1) Heliothis Virescens Test To produce a suitable preparation of active compound, 1 part by weight of active compound is mixed with the stated amounts of solvent and emulsifier, and the concentrate is diluted with emulsifier-containing water to the desired concentration. Soya bean shoots (Glycine max) are treated by being dipped into the preparation of active compound of the desired concentration and are populated with Heliothis virescens caterpillars whilst the leaves are still moist. After the desired period of time, the kill in % is determined. 100% means that all caterpillars have been killed; 0% means that none of the caterpillars have been killed.

[2] = tested on: army worm (Spodoptera exigua) caterpillars; assay: Spodoptera exigua test (cabbage leaves dipped); assay type: in vivo
Experimental: as §1, with “Spodoptera Exigua” for “Heliothis Virescens”, “Cabbage leaves (Brassica oleracea)” for “Soya bean shoots (Glycine max)”, “army worm (Spodoptera exigua)” for “Heliothis virescens”

[3] = active compound concentration 40 ppm
[4] = active compound concentration 500 ppm

In the case of Fc1cccc(F)c1C1=NC(c2ccc(-c3ccc(OCC(F)(F)F)nn3)cc2)CC1 (stereo not drawn) [drawing 264], the “Kill rate in % after 7 d” value [1, 3] is reported as 100%.

With CC(C)Oc1ncc(-c2ccc(C3CCC(c4c(F)cccc4F)=N3)cc2)cn1 (stereo not drawn) [drawing 265] the “Kill rate in % after 7 d” value [1, 3] was 100%.

Fc1cccc(F)c1C1=NC(c2ccc(-c3ccc(C(F)(F)F)cn3)cc2)CC1 (stereo not drawn) [drawing 266] was tested, and the “Kill rate in % after 7 d” value [1, 3] was 100%.

With Fc1cccc(F)c1C1=NC(c2ccc(-c3ccc(OCC(F)(F)F)nc3)cc2)CC1 (stereo not drawn) [drawing 267] the “Kill rate in % after 7 d” value [1, 4] was 100%.

With CCCN(CC)c1ncc(-c2ccc(C3CCC(c4c(F)cccc4F)=N3)cc2)cn1 (stereo not drawn) [drawing 268] the “Kill rate in % after 7 d” value [1, 3] was 100%.

For Fc1cccc(F)c1C1=NC(c2ccc(-c3ccc(N4CCOCC4)nc3)cc2)CC1 (stereo not drawn) [drawing 269], the “Kill rate in % after 7 d” value [1, 4] was 100%.

With Fc1cccc(F)c1C1=NC(c2ccc(-c3ccc(OCC(F)(F)F)nc3)cc2)CC1 (stereo not drawn) [drawing 277] the “Kill rate in % after 7 d” value [2, 4] was 100%.

CCCN(CC)c1ncc(-c2ccc(C3CCC(c4c(F)cccc4F)=N3)cc2)cn1 (stereo not drawn) [drawing 278] was tested, and the “Kill rate in % after 7 d” value [2, 4] was 100%.

Fc1cccc(F)c1C1=NC(c2ccc(-c3ccc(N4CCOCC4)nc3)cc2)CC1 (stereo not drawn) [drawing 279] was tested, and the “Kill rate in % after 7 d” value ([2]; active compound concentration 1000 ppm) was 100%.
